Results: patent USRE30633E, “3-Lower alkylcarbamylsulfonamido-4-phenylaminopyridines, n-oxides, derivatives thereof and pharmaceutical compositions containing same” (A. Christiaens Societe Anonyme, priority 1974, dated 1981)

Columns and labels:
rats = test: Pharmacological test for diuretic properties (urine volume); assay type: in vivo; conditions: 50 mg/kg gastric gavage, 25 ml/kg saline s.c., urine collected 4 hours, ml/kg of body weight
Protocol: 2. Pharmacological tests for diuretic properties Lots of 3 rats weighting 250-300 g have been constituted at random, each of them being submitted to the same treatment. The compound to be tested was administered by .[.gastric gavage at a dose of 50 ml/kg as a solution or a.]. .Iadd.gastric gavage at a dose of 50 mg/kg as a solution or a .[…].suspension in water containing 0.45% of methylcellulose (which is an inert mucilaginous substance). Control animals received only distilled water as a placebo. At the same time, all the animals received 25 ml/kg of physiological saline by subcutaneous injection. The rats were then placed in metabolic cages, each cage containing 3 animals receiving the same treatment. The urines have been collected during 4 hours. […] The diuresis is expressed in ml/kg of body weight.

paw of rats = test: Pharmacological test for anti-inflammatory properties (carrageenan rat paw swelling); assay type: in vivo; conditions: oral 1 hour before carrageenan (0.05 ml of 1%), swelling 4 hours after injection by plethysmography, dose not given
Protocol: 1. Pharmacological test for anti-inflammatory properties.
The compounds to be tested are given as freshly prepared solutions or suspensions by oral route 1 hour before injecting the paw of rats with carrageenan which is a known inflammatory agent.
The inflammatory agent (carrageenan) either in solution or suspension is then injected into the plantar tissue of the right hind paw of each rat, the left paw remaining untreated and serving as control. Each animal receives, for example, 0.05 ml of an aqueous solution containing 1% by weight of carrageenan and 0.9% of sodium chloride.
4 hours after the injection of the inflammatory agent, the importance of swelling is determined by plethysmography and is expressed as a percent of the volume of the control paw.
The anti-inflammatory effect expressed as a percentage of inhibition is obtained by comparison between rats treated with the anti-inflammatory compound and a control group of rats.

Row | Compound | Diuresis (rats) [mL/kg] | % inhibition of acute oedema (paw of rats) [%]
1 | 3-isopropylcarbamylsulfonamido-4-isopropylaminopyridine [JDL 363] | 40.1 | 63.2
2 | O=C(NS(=O)(=O)c1cnccc1Nc1cccc(C(F)(F)F)c1)c1ccccc1 [C 2129, 3-benzoylsulfonamido-4-(3'-trifluoromethyl)-phenylaminopyridine] | 30.3 | 23.2
3 | NS(=O)(=O)c1cnccc1NCc1ccco1 [JDL 181, 3-sulfonamido-4-methylfurylamino-pyridine] | 14.8 | 21.6
4 | CCCCNC(=O)NS(=O)(=O)c1cnccc1Nc1cccc(Cl)c1 [JDL 344, 3-butylcarbamylsulfonamido-4-(3'-chloro)-phenylaminopyridine] | 66.9 | 82.4
5 | CCCNC(=O)NS(=O)(=O)c1cnccc1Nc1cccc(C(F)(F)F)c1 [JDL 355, 3-propylcarbamylsulfonamido-4-(3'-trifluoromethyl)phenylaminopyridine] | 57.0 | 48.8
6 | CCCCNC(=O)NS(=O)(=O)c1cnccc1Nc1cccc(C(F)(F)F)c1 [JDL 356, 3-butylcarbamylsulfonamido-4-(3'-trifluoromethyl)-phenylaminopyridine] | 54.7 | 80.8
7 | O=C(Nc1ccc(Cl)cc1)NS(=O)(=O)c1cnccc1Nc1cccc(C(F)(F)F)c1 [JDL 357, 3-parachlorophenylcarbamylsulfonamido-4-(3'-trifluoromethyl)-phenylaminopyridine] | 11.2 | 52.0
8 | CCC(=O)NS(=O)(=O)c1cnccc1N(C)c1ccccc1 [JDL 358, 3-propionylsulfonamido-4-(N-methylanilino)-pyridine] | 17.9 | 57.3
9 | NS(=O)(=O)c1cnccc1Oc1cccc(Cl)c1 [JDL 360, 3-sulfonamido-4-(3'-chloro)-phenoxypyridine] | 5.2 | 33.6
10 | NS(=O)(=O)c1cnccc1Sc1cccc(Cl)c1 [JDL 361, 3-sulfonamido-4-(3'-chloro)-thiophenoxypyridine] | 9.6 | 56.8
11 | CC(=O)NS(=O)(=O)c1cnccc1Sc1cccc(Cl)c1 [JDL 362, 3-acetylsulfonamido-4-(3-chloro)-thiophenoxy-pyridine] | 8.1 | 37.6
12 | O=C(NC1CCCCC1)NS(=O)(=O)c1cnccc1Nc1cccc(C(F)(F)F)c1 [JDL 364, 3-cyclohexylcarbamylsulfonamido-4-(3'-trifluoromethyl)-phenylaminopyridine] | 37.7 | 58.4
13 | CCCNC(=O)NS(=O)(=O)c1cnccc1Oc1cccc(Cl)c1 [JDL 365, 3-propylcarbamylsulfonamido-4-(3'-chloro)-phenoxypyridine] | 8.7 | 43.2
14 | CCCCNC(=O)NS(=O)(=O)c1cnccc1Sc1cccc(Cl)c1 [JDL 366, 3-butylcarbamylsulfonamido-4-(3'-chloro)-thiophenoxypyridine] | 11.1 | 56.0
15 | CC(C)(C)NC(=O)NS(=O)(=O)c1cnccc1Nc1cccc(C(F)(F)F)c1 [JDL 367, 3-tertbutylcarbamylsulfonamido-4-(3'-trifluoromethyl)-phenylaminopyridine] | 11.1 | 80.0
16 | O=C(Nc1ccccc1)NS(=O)(=O)c1cnccc1Nc1cccc(C(F)(F)F)c1 [JDL 368, 3-phenylcarbamylsulfonamido-4-(3'-trifluoromethyl)phenylaminopyridine] | 6.1 | 57.0
17 | CCCNC(=O)NS(=O)(=O)c1cnccc1Nc1cccc(Cl)c1 [JDL 375, 3-propylcarbamylsulfonamido-4-(3'-chloro)-phenylaminopyridine] | 80.5 | 46.4
18 | CNC(=O)NS(=O)(=O)c1cnccc1Nc1cccc(C(F)(F)F)c1 [JDL 378, 3-methylcarbamylsulfonamido-4-(3'-trifluoromethyl)-phenylaminopyridine] | 84.0 | 74.4
19 | CNC(=O)NS(=O)(=O)c1cnccc1Nc1cccc(Cl)c1 [JDL 379, 3-methylcarbamylsulfonamido-4-(3'-chloro)-phenylaminopyridine] | 76.5 | 63.2

Row | Compound | Diuresis (rats) [mL/kg] | % inhibition of acute oedema (paw of rats) [%]
20 | CCCNC(=O)NS(=O)(=O)c1cnccc1N(C)c1ccccc1 [JDL 383, 3-pripylcarbamylsulfonamido-4-N-methyl-anilinopyridine] | 57.8 | 55.2
21 | CCCNC(=O)NS(=O)(=O)c1cnccc1Sc1cccc(Cl)c1 [JDL 384, 3-propylcarbamylsulfonamido-4-(3'-chloro)-thiophenoxypyridine] | 12.8 | 66.4
22 | CC(C)(C)NC(=O)NS(=O)(=O)c1cnccc1Sc1cccc(Cl)c1 [JDL 385, 3-tertiobutylcarbamylsulfonamido-4-(3'-chloro)-thiophenoxypyridine] | 17.6 | 46.6
23 | CCNC(=O)NS(=O)(=O)c1cnccc1Nc1cccc(C(F)(F)F)c1 [JDL 386, 3-ethylcarbamylsulfonamido-4-(3'-trifluoromethyl)-phenylaminopyridline] | 80.5 | 80.8
24 | CCNC(=O)NS(=O)(=O)c1cnccc1Nc1cccc(Cl)c1 [JDL 387] | 80.9 | 76.8
25 | CC(C)(C)NC(=O)NS(=O)(=O)c1cnccc1Nc1cccc(Cl)c1 [JDL 388, 3-tertiobutylcarbamylsulfonamido-4-(3'-chloro)-phenylaminopyridine] | 37.0 | 66.4
26 | O=C(NC1CCCCC1)NS(=O)(=O)c1cnccc1Nc1cccc(Cl)c1 [JDL 389, 3-cyclohexylcarbamylsulfonamido-4-(3'-chloro)-phenylaminopyridine] | 73.3 | 64.0
27 | O=C(Nc1ccccc1)NS(=O)(=O)c1cnccc1Nc1cccc(Cl)c1 [JDL 390, 3-phenylcarbamylsulfonamido-4-(3'-chloro)-phenylaminopyridine] | 16.9 | 47.2
28 | O=C(Nc1ccc(Cl)cc1)NS(=O)(=O)c1cnccc1Nc1cccc(Cl)c1 [JDL 391, 3-parachlorophenylcarbamylsulfonamido-4-(3'-chloro)-phenylaminopyridine] | 9.6 | 74.4
29 | CNC(=O)NS(=O)(=O)c1cnccc1Nc1ccccc1Cl [JDL 402, 3-methylcarbamylsulfonamidio-4-(2'-chloro)-phenylaminopyridine] | 65.4 | 76.8
30 | CCNC(=O)NS(=O)(=O)c1cnccc1Nc1ccccc1Cl [JDL 403, 3-ethylcarbamylsulfonamido-4-(2'-chloro)-phenylaminopyridine] | 74.9 | 76.8
31 | CCCNC(=O)NS(=O)(=O)c1cnccc1Nc1ccccc1Cl [JDL 404, 3-propylcarbamylsulfonamido-4-(2'-chloro)-phenylaminopyridine] | 43.1 | 76.8
32 | CC(C)NC(=O)NS(=O)(=O)c1cnccc1Nc1cccc(Cl)c1 [JDL 413, 3-isopropylcarbamylsulfonamido-4-(3'-chloro)-phenylaminopyridine] | 92.5 | 76.8
33 | CC(C)NC(=O)NS(=O)(=O)c1cnccc1Nc1cccc(C(F)(F)F)c1 [JDL 414, 3-isopropylcarbamylsulfonamido-4-(3'-trifluoromethyl)-phenylaminopyridine] | 82.9 | 75.2
34 | CNC(=O)NS(=O)(=O)c1cnccc1Nc1ccc(Cl)cc1 [JDL 415, 3-methylcarbamylsulfonamido-4-(4'-chloro)-phenylaminopyridine] | 47.0 | 75.2
35 | CCNC(=O)NS(=O)(=O)c1cnccc1Nc1ccc(Cl)cc1 [JDL 416, 3-ethylcarbamylsulfonamido-4-(4'-chloro)-phenylaminopyridine] | 52.8 | 85.6
36 | CC(C)NC(=O)NS(=O)(=O)c1cnccc1Nc1cc(Cl)cc(Cl)c1 [JDL 474, 3-isopropylcarbamylsulfonamido-4-(3',5'-dichloro)-phenylaminopyridine] | 33.3 | 
37 | CNC(=O)NS(=O)(=O)c1cnccc1Nc1cccnc1 [JDL 506, 3-methylcarbamylsulfonamido-4-(3'-pyridylamino)-pyridine] | 13.5 | 
